Tests used:
[1] = system: complete Freund's adjuvant (CFA)-evoked heat hyperalgesia; experiment: CFA-evoked heat hyperalgesia (paw withdrawal latency, Hargreaves); assay type: in vivo, mice; details: for reduction of heat hyperalgesia: 10 ng i.t., post-CFA day 3, 1 h after injection
Protocol: Animals and pain models. Adult CD1 mice (male, 25-32 g) were used for most experiments. Knockout mice were used lacking TNFR1/II (Tnfrsf1a/1b^−/−) and TRPV1 (Trpv1^−/−) and C57BL/6 wild-type control mice, all from Jackson, for some experiments. All animal procedures performed in this study were approved by the Harvard Medical Area Standing Committee on Animals. 20 μl of diluted formalin (5%), carrageenan (CRG, 1%), or complete Freund's adjuvant (CFA) were injected into the plantar surface of a hindpaw to produce acute, persistent, or chronic inflammatory pain, respectively. Postoperative pain was also produced through hindpaw incision^36 and neuropathic pain by ligation of the spinal nerve^37.
Reagents and administration. RvE1 and RvD1 were suspended in 1% or 10% ethanol as vehicle for investigating acute (<1 h) and persistent (1-6 h) effects of resolvins on inflammatory pain. The reagents (10 μl) were delivered to the cerebral spinal fluid via intrathecal injection made by a spinal cord puncture between the L5 and L6 level with a 30G needle^38.
Behavioral analysis. Mice were habituated in the testing environment for two days and performed behavioral testing in a blinded manner. Formalin-evoked spontaneous inflammatory pain was assessed by measuring duration (seconds) animals spent on licking/flinching the affected paws every 5 min for 45 min. Capsaicin-induced spontaneous pain was aslo assessed for 10 min. For testing mechanical sensitivity, mice were put in boxes on an elevated metal mesh floor and stimulated hindpaw with a series of von Frey hairs with logarithmically incrementing stiffness (0.02-2.56 grams, Stoelting), presented perpendicular to the plantar surface. It was determined the 50% paw withdrawal threshold using Dixon's up-down method^40. For testing heat sensitivity, mice were placed in plastic boxes and tested heat sensitivity using Hargreaves radiant heat apparatus (IITC Life Science Inc.). The basal paw withdrawal latency was adjusted to 9-12 seconds and set a cut-off of 20 seconds to prevent tissue damage. The percent maximal possible antinociceptive effect (% M.P.E) was calculated using the equation % M.P.E.=[(PL−BL2)/(BL1−BL2)]×100. BL1, baseline latency before inflammation; BL2, baseline latency after inflammation but before drug injection; PL, latency post drug injection.
Intrathecal injection. To avoid systemic effects of drugs and target spinal mechanisms, drugs were delivered into cerebral spinal fluid (CSF) space around lumbosacral spinal cord via intrathecal (i.t.) administration. Spinal cord puncture was made with a 30G needle between the L5 and L6 level to deliver the reagents (10 μl) to the cerebral spinal fluid (Hylden and Wilcox, 1980)^5. […] In addition to spinal cord cells, intrathecal drug administration also affects DRG cells^6,7.
The anti-hyperalgesic efficacy of RvE1 prepared in 1% and 10% ethanol was compared on post-CFA day 3.

CRG-induced edema = experiment: Carrageenan paw edema (paw volume, plethysmometer); assay type: in vivo, mice; details: intraplantar pretreatment; 4 h after CRG injection
Protocol: Measurement of paw volume. Paw swelling (edema) after carrageenan injection was determined by water displacement plethysmometer (Ugo Basile, Italy). The Plethysmometer is a microcontrolled volume meter, specially designed for accurate measurement of the rat/mouse paw swelling. It consists of a water filled Perspex cell into which the paw is dipped. A transducer of original design records small differences in water level, caused by volume displacement.

lamina II neurons = experiment: Patch clamp recording of sEPSCs in lamina II neurons of spinal cord slices; assay type: cell-based, mice
Protocol: (§1) Spinal cord slice preparation. As previously reported^39, a portion of the lumbar spinal cord (L4-L5) was removed from young mice (3-4 week old) under urethane anesthesia (1.5-2.0 g/kg, i.p.) and transverse spinal cord slices were cut (600 μm) on a vibrating microslicer. The slices were perfused with Kreb's solution (8 ml/min) for >2 h prior to experiments. Some slices were stimulated with TNF-α (10 ng/ml, 5 min), the slices were fixed with 4% paraformaldehyde for 1 h, and processed pERK immunohistochemistry using thin sections (15 μm)^13.
Patch clamp recordings in spinal slices. Whole cell patch-clamp recordings were performed in lamina II neurons in voltage clamp mode^39. After establishing the whole-cell configuration, neurons were held at the holding potentials of −70 mV for recording spontaneous excitatory postsynaptic current (sEPSC). NMDA-induced currents were recorded by bath application of NMDA (50 μM, Sigma) at the holding potential of −50 mV. Membrane currents were amplified with an Axopatch 200A amplifier (Axon Instruments) in voltage-clamp mode. pCLAMP 6 was used and Mini Analysis (Synaptosoft Inc.) software to store and analyze the data. Those cells showing >5% changes from the baseline levels were reagrded as responding ones^24.
Resolvins were also used for intraplantar injection. RvD1 or RvE1 was injected into the plantar surface of a hindapaw [20 ng, 20 μl , in 1% ethanol (Supplementary FIG. 5a, 5b) or in 10% ethanol (FIG. 2e, Supplementary FIG. 1d)]. DRG cultures were incubated with RvE1 (10 ng/ml, 0.1% ethanol in culture medium) and perfused spinal cord slices with RvE1 (1 ng/ml, in 0.01% ethanol and Kreb's solution).
Perfusion of spinal cord slices: Spinal cord slices were incubated with chemerin (100 ng/ml, in Kreb's solution), TNF-α (10 ng/ml, in Kreb's solution), capsaicin (100 nM, in 0.01% DMSO and Kreb's solution), TRPV1 antagonist capsazepine (Sigma, 10 μM, in 0.01% DMSO and Kreb's solution), pertussix toxin (0.5 μg/ml, in Kreb's solution), and MEK inhibitor PD98059 and U0126 (CalBiochem, 1 μM, in 0.01% DMSO and Kreb's solution). For pertussix toxin treatment, spinal cord slices were incubated with the toxin for 3 h before stimulation.

ERK phosphorylation = ERK phosphorylation (pERK) in superficial dorsal horn neurons of spinal slices; assay type: cell-based, mice; details: TNF-α 10 ng/ml, 5 min
Protocol: as §1
Resolvins were also used for intraplantar injection. RvD1 or RvE1 was injected into the plantar surface of a hindapaw [20 ng, 20 μl , in 1% ethanol (Supplementary FIG. 5a, 5b) or in 10% ethanol (FIG. 2e, Supplementary FIG. 1d)]. […]
PERK immunohistochemistry in the spinal cord: Transverse spinal cord slices (600 μm) were cut on a vibrating microslicer. […] The stained sections were examined with a Nikon fluorescence microscope, and images were captured with a CCD Spot camera. The number of pERK-immunoreactive cells in the superficial dorsal horn (laminae I-III) was quantified in 5 spinal cord sections from each slice and averaged for that slice, and 4-5 slices from separate animals were included for data analysis^12.

CC[C@@H](O)/C=C/C=C\C[C@@H](O)/C=C/C=C/C=C\[C@@H](O)CCCC(=O)O [RvE1, 5S,12R,18R-trihydroxyeicosapentaenoic acid]
reduction of heat hyperalgesia ([1]; vehicle 1% ethanol): 54.7% | reduction of heat hyperalgesia ([1]; vehicle 10% ethanol): 55.7% | reduction in hyperalgesia ([1]; 10 ng intrathecal, post-CFA day 3, 15 min after administration): ~75% | potency of 10 ng RvE1 compared with 10 μg NS-398 ([1]; intrathecal, CFA heat hyperalgesia, 1-6 h): more potent than 10 μg COX-2 inhibitor NS-398 | CRG-induced edema (paw volume) (CRG-induced edema): reducing | capsaicin-induced increases in sEPSC frequency after pretreatment with pertussis toxin (lamina II neurons; PTX 0.5 μg/ml for 3 h before capsaicin stimulation): fails to inhibit | basal synaptic transmission (sEPSC) (lamina II neurons; RvE1 alone, 1 ng/ml perfusion): did not alter basal synaptic transmission | TNF-α-evoked sEPSC frequency increase (lamina II neurons; TNF-α 10 ng/ml, RvE1 1 ng/ml, capsazepine 10 μM): blocked | capsaicin-evoked sEPSC frequency increase (lamina II neurons; capsaicin 100 nM, RvE1 1 ng/ml, chemerin 100 ng/ml, PD98059 and U0126 1 μM): completely blocked | TNF-α-induced ERK phosphorylation in superficial dorsal horn neurons (ERK phosphorylation): reduced the phosphorylation

— US20120245229A1, “METHOD FOR TREATING NEUROPATHIC PAIN” (priority 2009, published 2012)
